Measured values taken from doi:10.1101/116368v1 (biorxiv, 2017).

Molecular target: T1, STARD1 (StAR), STARD1^S195E, residues 66-285 (Homo sapiens, UniProt P49675, S195E)
T1 sequence (P49675 66-285 S195E): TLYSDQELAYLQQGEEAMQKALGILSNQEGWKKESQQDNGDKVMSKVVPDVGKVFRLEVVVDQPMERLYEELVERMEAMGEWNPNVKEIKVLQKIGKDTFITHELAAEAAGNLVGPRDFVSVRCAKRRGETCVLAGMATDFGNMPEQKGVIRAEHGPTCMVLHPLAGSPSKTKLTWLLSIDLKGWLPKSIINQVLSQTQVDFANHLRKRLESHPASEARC
Experiment: NBD fluorescence titration, quadratic fit
Assay type: binding

Kd	SMILES
26 ± 8 nM	CC(Nc1ccc([N+](=O)[O-])c2nonc12)[C@H]1CC[C@H]2[C@@H]3CC=C4C[C@@H](O)CC[C@]4(C)[C@H]3CC[C@]12C (some centres unmarked) [20NP, 20-((NBDamino)-pregn-5-en-3-ol]
302 ± 29 nM	CC(C)CCC[C@@H](C)[C@H]1CC[C@H]2[C@@H]3CCC4CC(Nc5ccc([N+](=O)[O-])c6nonc56)CC[C@]4(C)[C@H]3CC[C@]12C (some centres unmarked) [3NC, 3-(NBDamino)-cholestane]
